In patent US7901713B2, “Inhibition of COX-2 and/or 5-LOX activity by fractions isolated or derived from hops” (Metaproteomics, LLC, priority 2001, dated 2011):

Legend:
[1] = clinical trials; cited from earlier work
Jurkat cells = assay: Antioxidant activity, DCFH-DA oxidative stress model (H2O2 + LPS) in Jurkat cells; type: cell-based; conditions: Homo sapiens, 1000 μM H2O2 + 1 μg/mL LPS, highest concentration tested 50 μg/mL, parenthetic 95% confidence limits
Description: Chemicals and reagents—Bacterial lipopolysaccharide (LPS; B E. coli 055:B5) was from Sigma (St. […] (Eugene, Oreg.); DCFH-DA was dissolved in dimethyl sulfoxide (DMSO) as a stock solution and kept frozen at −20° C. […] Positive control compounds included caffeic acid and Trolox obtained from Sigma (St. Louis, Mo.) and were of the highest purity commercially available. […] Unless otherwise noted, all standard reagents were obtained from Sigma and were the purest commercially available. […] Excess DCFH-DA was removed by centrifuging the cells for 10 minutes and resuspending them in the original growth medium. Cells were plated in microtiter wells at a concentration of approximately 10^6 cells per well. […] Fluorescence for each well was captured, digitized and stored on a computer using Cytofluor (Version 4.0). Measurements of fluorescence were made every ten minutes for 60 minutes. The change in DCF fluorescence is presented relative to the LPS-stimulated Jurkat cells alone; […] […] Antioxidant activity of the test materials—Oxidative stress was measured in cells using DCFH-DA in a microtiter plate assay as previously described [Wang, H. and Joseph, J. A. (1999) Quantifying cellular oxidative stress by dichlorofluorescein assay using microplate reader. […] Thus, the assay can be used to quantify overall oxidative stress in cells. […] Cm is determined from the x-intercept of the median-effect plot. […]

RAW 264.7 cells = assay: Antioxidant activity, DCFH-DA oxidative stress model (H2O2 + LPS) in RAW 264.7 cells; type: cell-based, murine; conditions: Mus musculus, RAW264.7; 1000 μM H2O2 + 1 μg/mL LPS; highest concentration tested 50 μg/mL; parenthetic 95% confidence limits

SMILES | reduction of primary and secondary incidence of myocardial infarction and other CVDs [1] | IC50 (Jurkat cells) [µg/mL] | IC50 (RAW 264.7 cells) [µg/mL]
CC(=O)Oc1ccccc1C(=O)O [Aspirin, acetylsalicylic acid] | approximately 25% | – | –
O=C(O)/C=C/c1ccc(O)c(O)c1 [Caffeic acid, caffeic acid] | – | 3.2 | 3.3
Cc1c(C)c2c(c(C)c1O)CCC(C)(C(=O)O)O2 (stereo not shown) [Trolox] | – | 5.4 | –
